This is an account of results in patent publication US5652226A (priority 1995, dated 1997).

What all share (format): cell-based
For assay [1], the system named is various strains of streptococci and enterococci resistant to vancomycin. Briefly: microbe, parasite or virus in culture. The conditions noted are these: read-out: MICs.
In assay [2] the test system is methicillin-resistant staphylococci. The assay is described as follows: microbe, parasite or virus in culture.
The subject of assay [3] is methicillin-susceptible staphylococci. The assay is described as follows: microbe, parasite or virus in culture.
A further assay deals with Enterococcus faecalis. Briefly: microbe, parasite or virus in culture.
Another assay concerns Borrelia burgdorferi. Briefly: microbe, parasite or virus in culture. The conditions noted are these: Borreliella burgdorferi, read-out: MICs.
For assay [4], the system named is Legionella pneumophila and L. Longbeachea. Briefly: microbe, parasite or virus in culture. The conditions noted are these: read-out: MICs.
The test system of a further assay is gram negative bacteria. The assay is described as follows: microbe, parasite or virus in culture. The conditions noted are these: read-out: GMM.
The test system of a further assay is Trichiomonas vaginalis. The assay is described as follows: microbe, parasite or virus in culture. The conditions noted are these: read-out: MICs.
The next assay has as its system Mycoplasma. Briefly: microbe, parasite or virus in culture. Conditions: read-out: MICs.
Assay [5] has as its system gram positive and gram negative bacteria.

≈ marks a conversion by molar mass, not a printed value.

As to `CN[C@H](CC(C)C)C(=O)N[C@H]1C(=O)N[C@@H](CC(N)=O)C(=O)N[C@H]2C(=O)N[C@H]3C(=O)N[C@H](C(=O)N[C@H](C(=O)O)c4cc(O)cc(O)c4-c4cc3ccc4O)[C@H](O)c3ccc(c(Cl)c3)Oc3cc2cc(c3O[C@@H]2O[C@H](CO)[C@@H](O)[C@H](O)[C@H]2O[C@H]2C[C@](C)(N)[C@H](O)[C@H](C)O2)Oc2ccc(cc2Cl)[C@H]1O` [vancomycin], the MIC in assay [1] is at least 128 µg/mL.
With `COC[C@H]1O[C@@H](O[C@@H]2OC[C@@H]3O[C@@]4(OC[C@@H](OC(=O)c5c(C)cc(O)cc5O)[C@@H]5OCO[C@H]54)O[C@H]3[C@H]2O)[C@@H](OC)[C@@H](O)[C@@H]1O[C@@H]1O[C@H](C)[C@H](OC)[C@H](O[C@@H]2O[C@H](C)[C@H]3O[C@]4(C[C@@H](O)[C@H](O[C@H]5C[C@@H](O[C@H]6C[C@](C)([N+](=O)[O-])[C@@H](OC)[C@H](C)O6)[C@H](OC(=O)c6c(C)c(Cl)c(O)c(Cl)c6OC)[C@@H](C)O5)[C@@H](C)O4)O[C@]3(C)[C@@H]2O)[C@H]1O` [Everninomicin, everninomicin], the “potency relative to vancomycin” value in assay [2] (more potent than vancomycin, methicillin-resistant staphylococci) was determined as 10 fold; in assay [3], 10 fold; with Enterococcus faecalis it was 2 fold. Also, the MIC in assay [2] (read-out: GMM) is 0.1 µg/mL (≈ 0.0613 µM); in [3] (read-out: GMM) it was 0.5 µg/mL (≈ 0.306 µM); with Enterococcus faecalis (Enterococcus faecalis, read-out: GMM), 0.49 µg/mL (≈ 0.3 µM); in [1], at most 0.5 µg/mL; in the assay on Borrelia burgdorferi, at most 0.49 µg/mL; in assay [4] it was at least 2.5 µg/mL. Also, the MIC in the assay on gram negative bacteria was at least 760 µg/mL; in the assay with Trichiomonas vaginalis, at least 192 µg/mL; in the assay with Mycoplasma, at least 200 µg/mL. For the same compound, the “cross resistance with other antibiotics” value in assay [5] is recorded as “No cross resistance with other antibiotics was observed”.
